BindingDB's records for doi:10.1021/jm960078j (University of Arizona, 1996)

Test: Binding affinity towards Opioid receptor delta 1 was determined in guinea pig whole brain using [3H][4''-Cl-Phe4]-DPDPE as radioligand

Row | Structure (SMILES) | IC50 [nM]
1 | CCCC[C@@H](C(=O)N[C@@H](CC(=O)O)C(=O)N[C@@H](Cc1ccccc1)C(N)=O)N(C)C(=O)[C@@H](NC(=O)CNC(=O)[C@@H](Cc1ccccc1)NC(=O)[C@H](Cc1ccc(O)cc1)NC(=O)[C@@H](N)CC(=O)O)[C@@H](C)c1c[nH]c2ccccc12 | 140
2 | CCCC[C@@H](C(=O)N[C@@H](CC(=O)O)C(=O)N[C@@H](Cc1ccccc1)C(N)=O)N(C)C(=O)[C@H](Cc1c[nH]c2ccccc12)NC(=O)CNC(=O)[C@@H](Cc1ccccc1)NC(=O)[C@H](Cc1ccc(O)cc1)NC(=O)[C@@H](N)CC(=O)O [(3S)-3-[(2S)-2-[(2S)-2-{2-[(2R)-2-[(2S)-2-[(3S)-3-amino-3-formamidopropanoic acid]-3-(4-hydroxyphenyl)propanamido]-3-phenylpropanamido]acetamido}-3-(1H-indol-3-yl)-N-methylpropanamido]hexanamido]-3-{[(1S)-1-carbamoyl-2-phenylethyl]carbamoyl}propanoic acid] | 29
3 | CCCC[C@@H](C(=O)N[C@@H](CC(=O)O)C(=O)N[C@@H](Cc1ccccc1)C(N)=O)N(C)C(=O)[C@H](NC(=O)CNC(=O)[C@@H](Cc1ccccc1)NC(=O)[C@H](Cc1ccc(O)cc1)NC(=O)[C@@H](N)CC(=O)O)[C@H](C)c1c[nH]c2ccccc12 | 820
4 | CCCC[C@@H](C(=O)N[C@@H](CC(=O)O)C(=O)N[C@@H](Cc1ccccc1)C(N)=O)N(C)C(=O)[C@H](NC(=O)CNC(=O)[C@@H](Cc1ccccc1)NC(=O)[C@H](Cc1ccc(O)cc1)NC(=O)[C@@H](N)CC(=O)O)[C@@H](C)c1c[nH]c2ccccc12 | 1050
